Data set [1] in a line: pKa. Type of data set: physicochemical. As to conditions: read-out: pV-a.
Data set [2] is described as follows: Protein binding (bovine serum albumin). It counts as in vitro ADME. Particulars: 4 × 10^-4 M bovine serum albumin. An excerpt: b. % Bound using 4 × 10^-4 M bovine serum albumin.
Data set [3] can be described thus: Distribution between octanol and aqueous buffer at pH 7.4. It counts as physicochemical. How it is done:
a. Distribution between octanol and aqueous buffer at pH = 7.4 were
determined as described by R. A. Sherrer and S. M. Howard, J. Med. Chem.

In data set [4] the test system is cat cerebrocortical tissue slices. The experiment in a line: in vitro cat cerebrocortical tissue slice assay (inhibition of HCO3- stimulated swelling). As to conditions: Felis catus, 1 h, compounds dissolved as sodium salts, 60 min incubation at 37° C, read-out: I50, concentration giving 50% inhibition of swelling. Type of data set: cell-based. The source says: The (1) in vitro cat cerebrocortical tissue slice assay, (2) the in vitro primary rat astrocyte culture assay and (3) the in vivo cat head injury assay. The first assay, the in vitro cat cerebrocortical tissue slice assay has been described by Marshall, L. F.; Shapiro, H. M.; Smith, R. W. In "Seminars in Neurological Surgery: Neural Trauma"; Popp, A. J.; Bourke, R. S.; Nelson, L. R.; Kimelberg, H, K,. Eds.; Raven Press: New York, 1979; p 347, by Bourke, R. S.; Kimelberg, H, K.; Daze, M. A. in Brain Res. 1978, 154, 196, and by Bourke, R. S.; Kimelberg, H. K,; Nelson, L. R. in Brain Res. 1976, 105, 309. This method constitutes a rapid and accurate method of determining the intrinsic chloride inhibitory properties of the compounds of the invention in the target tissue.
Using the in vitro cat cerebrocortical tissue slice assay, described in Example 1, compounds of the present invention can be tested for activity. This test provides the principal in vitro evaluation and consists of a determination of concentration vs. response curve. […]
Following the 60 minute incubation period, tissue slices were separated from incubation medium by filtration, reweighed, and homogenized in 1 N HClO4 (10% w/v) for electrolyte analysis. […] Control slice swelling is expressed as microliters per gram initial preswelling fresh weight. […]

Data set [5] relates to animals receiving experimental in vivo head injury. As to conditions: in vivo head injury assay, J. Med. Chem. 25, 567 (1982); cited from earlier work.
Data set [6] relates to clinical cases of head injury. As to conditions: J. Med. Chem. 25, 567 (1982); cited from earlier work.
Data set [7] concerns astroglial edema. As to conditions: in vitro assay, J. Med. Chem. 25, 567 (1982); cited from earlier work.

Regarding `CCC[C@]12CCC(=O)C=C1c1c(cc(OCC(=O)N[C@H](C(=O)O)C(C)C)c(Cl)c1Cl)C2`, the pKa in data set [1] came out at 4.6. The compound also had a fraction unbound in data set [2] of 0.03. Moreover, the logD in data set [3] is 2.

Regarding `CCC[C@]12CCC(=O)C=C1c1c(cc(OCC(=O)N[C@@H](Cc3ccccc3)C(=O)O)c(Cl)c1Cl)C2`, in data set [1], the pKa came out at 4.58. In addition, the free fraction (fraction unbound) in data set [2] is 0.057. In data set [3], this compound showed a log distribution coefficient (logD) of 2.

Turning to `CCC[C@]12CCC(=O)C=C1c1c(cc(OCC(=O)N[C@@H](Cc3ccc(O)cc3)C(=O)O)c(Cl)c1Cl)C2`, the pKa in data set [1] is 4.12. In addition, the fraction unbound in data set [2] was 0.022. This compound gave a logD in data set [3] of 1.99.

As for `CCC[C@]12CCC(=O)C=C1c1c(cc(OCC(=O)N[C@@H](CO)C(=O)O)c(Cl)c1Cl)C2`, the pKa in data set [1] is 4.1. The compound also had an unbound share (fraction unbound) in data set [2] of 0.024. Also, the pH-dependent lipophilicity (logD) in data set [3] was 1.91.

Regarding `CCC[C@]12CCC(=O)C=C1c1c(cc(OCC(=O)N[C@@H](Cc3c[nH]cn3)C(=O)O)c(Cl)c1Cl)C2`, the pKa in data set [1] came out at 6.9. Further, the fraction unbound in data set [2] was 0.079. This compound also showed a logD in data set [3] of 1.95.

Turning to `CCC[C@]12CCC(=O)C=C1c1c(cc(OCC(=O)Nc3nnn[nH]3)c(Cl)c1Cl)C2`, in data set [1], the pKa was 3.78. The compound further showed an unbound share (fraction unbound) in data set [2] of 0.019. Besides, in data set [3], the logD was 1.96.

As for `CCC[C@]12CCC(=O)C=C1c1c(cc(OCC(=O)NS(C)(=O)=O)c(Cl)c1Cl)C2` [Example 4, R(+)-N-Methylsulfonyl-[(5,6-dichloro-3-oxo-9a-propyl-2,3,9,9a-tetrahydro-1H-fluoren-7-yl)oxy]acetamide], in data set [1], the pKa amounted to 4.25. Also, the free fraction (fraction unbound) in data set [2] was 0.028. Besides, in data set [4], the IC50 came to 20 nM. In addition, in data set [3], the logD is 1.97.

Take `CCC[C@]12CCC(=O)C=C1c1c(cc(OCC(=O)NC#N)c(Cl)c1Cl)C2` [Example 5, R(+)-N-Cyano-[(5,6-dichloro-3-oxo-9a-propyl-2,3,9,9a-tetrahydro-1H-fluoren-77-yl)oxy]acetamide]: in data set [1], the pKa was 3.65. The compound further gave a fraction unbound in data set [2] of 0.016. This compound gave a logD in data set [3] of 1.99.

Regarding `CCC[C@]12CCC(=O)C=C1c1c(cc(OCC(=O)NS(=O)(=O)CC)c(Cl)c1Cl)C2` [SO2 C2 H5], in data set [1], the pKa turned out to be 4.1. In data set [4], the IC50 came to 10 nM. The same compound gave a pH-dependent lipophilicity (logD) in data set [3] of 1.99.

`C=C(CC)C(=O)c1ccc(OCC(=O)O)c(Cl)c1Cl` [ethacrynic acid]: the activity in vivo result in data set [5] is reported as “exhibited activity”. Also, the “reduction of mortality in clinical cases of head injury” value in data set [6] was “effective in reducing mortality”. Further, in data set [7], the activity in vitro result is given as “exhibited activity”.

(Values after patent publication US4782073A, “Amides of [(5,6-dichloro-3-oxo-9-alpha-substituted-2,3,9,9-alpha-tetrahydrofluoren -7-yl-oxyl]acetic acids, and pharmaceutical compositions thereof” (Merck & Co., Inc., priority 1986, dated 1988).)
